pIC50: −log10 of the molar value.
Tests used:
Type in all cases: biochemical
[1] = biological target: T1, JAK1 (Homo sapiens, UniProt P23458); test: JAK1 Inhibition Assay (Omnia kinase fluorescence peptide substrate); conditions: averaged IC50 ranges; 40 μM (Km app) or 1 mM ATP, 15 nM JAK1
T1 construct: purchased Invitrogen Corporation, Carlsbad, Calif; IVGN PV4775
Outline: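 15 nM JAK1, 8 μM Omnia Y12 peptide, 40 μM (Km app) or 1 mM ATP; 25 mM HEPES pH 7.4, 10 mM MgCl2, 2% DMSO. Fluorescence (ex 360/em 485 nm) read every 50 s over 45 min. IC50 by 4-parameter fit of percent of control, top dose 10 μM.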

[2] = biological target: T2, JAK2 (Homo sapiens, UniProt O60674); test: JAK2 Inhibition Assay (Omnia kinase fluorescence peptide substrate); conditions: averaged IC50 ranges; 25 μM (Km app) or 1 mM ATP, 5 nM JAK2
T2 construct: purchased Invitrogen Corporation, Carlsbad, Calif; IVGN PV4288

[3] = biological target: T3, JAK3 (Homo sapiens, UniProt P52333); test: JAK3 Inhibition Assay (Omnia kinase fluorescence peptide substrate); conditions: averaged IC50 ranges; 10 μM (Km app) or 1 mM ATP, 2.5 nM JAK3
T3 construct: purchased Invitrogen Corporation, Carlsbad, Calif; IVGN PV4080
T3 sequence (P52333 1-1124): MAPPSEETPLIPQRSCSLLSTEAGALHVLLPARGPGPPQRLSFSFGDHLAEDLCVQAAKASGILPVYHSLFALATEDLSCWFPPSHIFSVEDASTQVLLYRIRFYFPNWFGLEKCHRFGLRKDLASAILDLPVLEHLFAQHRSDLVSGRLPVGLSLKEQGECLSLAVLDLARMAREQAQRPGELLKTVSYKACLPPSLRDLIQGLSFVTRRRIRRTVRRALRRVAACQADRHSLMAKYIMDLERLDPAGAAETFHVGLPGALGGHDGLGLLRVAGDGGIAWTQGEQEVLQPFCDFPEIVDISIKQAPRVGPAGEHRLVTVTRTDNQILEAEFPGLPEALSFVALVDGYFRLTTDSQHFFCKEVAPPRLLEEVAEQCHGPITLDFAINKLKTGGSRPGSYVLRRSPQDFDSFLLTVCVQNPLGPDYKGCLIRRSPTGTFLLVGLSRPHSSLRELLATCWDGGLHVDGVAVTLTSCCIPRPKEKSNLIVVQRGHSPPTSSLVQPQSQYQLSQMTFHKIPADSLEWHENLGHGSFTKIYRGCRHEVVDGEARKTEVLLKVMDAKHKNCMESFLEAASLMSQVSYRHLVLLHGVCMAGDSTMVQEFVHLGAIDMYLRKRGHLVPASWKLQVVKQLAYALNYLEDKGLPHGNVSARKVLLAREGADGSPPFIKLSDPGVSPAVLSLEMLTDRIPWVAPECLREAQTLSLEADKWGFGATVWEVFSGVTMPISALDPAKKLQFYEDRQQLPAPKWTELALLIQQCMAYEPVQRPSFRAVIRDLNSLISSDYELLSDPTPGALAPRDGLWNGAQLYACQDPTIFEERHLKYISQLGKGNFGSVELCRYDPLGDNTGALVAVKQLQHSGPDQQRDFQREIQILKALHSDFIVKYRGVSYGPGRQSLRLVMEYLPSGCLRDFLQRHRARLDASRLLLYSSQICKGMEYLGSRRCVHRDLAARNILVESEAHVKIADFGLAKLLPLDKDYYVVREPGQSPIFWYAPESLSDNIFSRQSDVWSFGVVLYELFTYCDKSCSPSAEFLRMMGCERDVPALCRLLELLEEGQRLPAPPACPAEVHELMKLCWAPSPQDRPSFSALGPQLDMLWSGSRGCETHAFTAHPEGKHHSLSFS
Outline: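 IC50 is the concentration giving 50 percent of control on a 4-parameter logistic fit of 10-point, 3-fold dilutions from a 10 μM top dose, at 2% final DMSO. Kinetic Sox fluorescence (360/485 nm) was monitored every 50 s for 45 min. Mix: JAK3 2.5 nM, Omnia Y7 peptide 10 μM, ATP 10 μM (Km app) or 1 mM, in HEPES pH 7.4 buffer with MgCl2, Triton X-100 and DTT.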

[4] = biological target: T4, Human Tyk2 kinase domain (Homo sapiens, UniProt P29597); test: Tyk2 Inhibition Assay (Omnia kinase fluorescence peptide substrate); conditions: averaged IC50 ranges; 10 μM (Km app) or 1 mM ATP, 2 nM Tyk2
T4 construct: comprising amino acids 886 to 1187; His10 (10 histidine residues) (C, cleaved yes); made in house
T4 sequence (P29597 886-1187): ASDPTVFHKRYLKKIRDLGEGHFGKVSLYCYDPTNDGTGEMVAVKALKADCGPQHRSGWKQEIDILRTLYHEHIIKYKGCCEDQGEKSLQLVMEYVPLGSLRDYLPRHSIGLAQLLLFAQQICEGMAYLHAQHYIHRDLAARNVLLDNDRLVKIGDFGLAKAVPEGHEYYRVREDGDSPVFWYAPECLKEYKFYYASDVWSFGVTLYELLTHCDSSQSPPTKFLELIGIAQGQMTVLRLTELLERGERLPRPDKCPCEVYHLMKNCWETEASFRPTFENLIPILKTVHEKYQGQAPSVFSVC
Outline: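 Phosphorylation of 8 μM Omnia Y12 peptide followed kinetically by Sox fluorescence, ex 360/em 485 nm, every 50 s for 45 min. Enzyme: 2 nM Tyk2 kinase domain (aa 886–1187, His tag removed); ATP at 10 μM (Km app) or 1 mM; buffer HEPES pH 7.4 with MgCl2, Triton X-100, DTT. 10-point curves up to 10 μM, IC50 from 4-parameter logistic fit.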

T2 sequence (O60674 whole entry): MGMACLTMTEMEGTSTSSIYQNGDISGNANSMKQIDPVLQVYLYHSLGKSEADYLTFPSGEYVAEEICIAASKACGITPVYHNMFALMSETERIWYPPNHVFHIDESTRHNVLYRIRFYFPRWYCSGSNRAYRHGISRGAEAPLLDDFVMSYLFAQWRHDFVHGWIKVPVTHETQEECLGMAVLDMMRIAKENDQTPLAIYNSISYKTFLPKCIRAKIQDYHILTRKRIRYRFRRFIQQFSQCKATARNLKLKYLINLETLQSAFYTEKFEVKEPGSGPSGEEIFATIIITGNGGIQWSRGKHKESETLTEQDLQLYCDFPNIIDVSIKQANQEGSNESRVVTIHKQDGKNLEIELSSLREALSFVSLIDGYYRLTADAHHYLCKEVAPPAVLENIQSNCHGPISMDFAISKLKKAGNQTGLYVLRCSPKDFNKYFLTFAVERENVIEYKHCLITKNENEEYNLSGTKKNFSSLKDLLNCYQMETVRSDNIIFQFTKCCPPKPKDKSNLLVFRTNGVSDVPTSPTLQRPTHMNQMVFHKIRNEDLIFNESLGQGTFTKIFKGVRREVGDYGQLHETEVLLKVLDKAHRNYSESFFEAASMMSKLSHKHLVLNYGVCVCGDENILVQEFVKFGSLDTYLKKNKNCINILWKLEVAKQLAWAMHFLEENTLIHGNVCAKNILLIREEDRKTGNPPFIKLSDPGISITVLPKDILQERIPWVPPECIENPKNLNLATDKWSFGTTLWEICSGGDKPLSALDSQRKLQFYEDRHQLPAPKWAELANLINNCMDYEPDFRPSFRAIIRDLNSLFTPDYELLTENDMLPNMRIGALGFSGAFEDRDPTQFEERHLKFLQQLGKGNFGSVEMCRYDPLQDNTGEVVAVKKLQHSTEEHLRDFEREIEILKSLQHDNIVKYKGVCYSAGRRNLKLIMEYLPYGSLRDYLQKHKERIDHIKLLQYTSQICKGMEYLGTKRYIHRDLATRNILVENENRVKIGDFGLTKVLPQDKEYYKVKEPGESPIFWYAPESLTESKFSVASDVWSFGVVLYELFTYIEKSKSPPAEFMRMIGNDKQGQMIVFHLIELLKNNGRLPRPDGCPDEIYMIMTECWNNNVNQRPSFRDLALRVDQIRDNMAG
T1 sequence (P23458 whole entry): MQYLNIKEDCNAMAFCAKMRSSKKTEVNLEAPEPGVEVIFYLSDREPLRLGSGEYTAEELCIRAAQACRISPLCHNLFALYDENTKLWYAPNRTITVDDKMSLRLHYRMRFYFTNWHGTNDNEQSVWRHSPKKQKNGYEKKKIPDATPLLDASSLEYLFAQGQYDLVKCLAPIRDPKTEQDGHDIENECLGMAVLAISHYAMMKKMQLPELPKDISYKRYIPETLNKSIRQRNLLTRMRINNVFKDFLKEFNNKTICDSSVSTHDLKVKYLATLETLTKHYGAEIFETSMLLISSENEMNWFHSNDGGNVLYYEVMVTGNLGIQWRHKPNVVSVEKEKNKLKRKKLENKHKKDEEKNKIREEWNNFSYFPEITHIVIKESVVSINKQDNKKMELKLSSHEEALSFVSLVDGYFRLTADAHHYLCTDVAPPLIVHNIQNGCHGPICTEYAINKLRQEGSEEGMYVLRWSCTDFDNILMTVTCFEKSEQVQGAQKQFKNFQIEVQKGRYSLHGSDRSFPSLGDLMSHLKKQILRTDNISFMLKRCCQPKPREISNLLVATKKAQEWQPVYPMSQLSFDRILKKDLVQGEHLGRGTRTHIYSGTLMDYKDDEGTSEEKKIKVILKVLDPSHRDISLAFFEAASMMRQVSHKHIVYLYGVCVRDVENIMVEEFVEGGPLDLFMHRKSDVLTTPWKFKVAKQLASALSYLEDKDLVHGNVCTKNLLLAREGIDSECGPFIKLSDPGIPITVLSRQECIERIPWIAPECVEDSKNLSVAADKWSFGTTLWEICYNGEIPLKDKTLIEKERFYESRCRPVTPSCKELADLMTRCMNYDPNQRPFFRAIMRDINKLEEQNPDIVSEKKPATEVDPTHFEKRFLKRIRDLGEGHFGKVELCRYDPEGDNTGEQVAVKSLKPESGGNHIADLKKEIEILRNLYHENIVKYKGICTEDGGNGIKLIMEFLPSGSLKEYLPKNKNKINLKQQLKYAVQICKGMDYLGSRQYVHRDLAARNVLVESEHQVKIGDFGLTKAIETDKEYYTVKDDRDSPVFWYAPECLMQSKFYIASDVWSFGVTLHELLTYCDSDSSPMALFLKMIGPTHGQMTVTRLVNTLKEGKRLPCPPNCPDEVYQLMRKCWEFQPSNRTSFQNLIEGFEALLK

| pIC50 [1] | pIC50 [2] | pIC50 [3] | pIC50 [4] | SMILES |
| --- | --- | --- | --- | --- |
| 6.00 to 7.00 | 6.00 to 7.00 | 6.00 to 7.00 | 6.00 to 7.00 | Cn1cc(-c2cc3nccn3c(-c3cnn(C4(CCF)CN(S(=O)(=O)CC5CC5)C4)c3)n2)cn1 [Example 87, 5-(1-(1-((cyclopropylmethyl)sulfonyl)-3-(2-fluoroethyl)azetidin-3-yl)-1H-pyrazol-4-yl)-7-(1-methyl-1H-pyrazol-4-yl)imidazo[1,2-c]pyrimidine] |
| 6.00 to 7.00 | 7.00 to 8.00 | 6.00 to 7.00 | 7.00 to 8.00 | CCCC1(n2cc(-c3nc(-c4cnn(C)c4)cc4nccn34)cn2)CN(S(=O)(=O)C(F)(F)F)C1 [Example 88, 7-(1-methyl-1H-pyrazol-4-yl)-5-(1-(3-propyl-1-((trifluoromethyl)sulfonyl)azetidin-3-yl)-1H-pyrazol-4-yl)imidazo[1,2-c]pyrimidine] |
| 7.00 to 8.00 | 7.00 to 8.00 | 6.00 to 7.00 | > 8.00 | COCCn1cc(-c2cc3nccn3c(-c3cnn(C4(CCF)CN(S(=O)(=O)C(F)(F)F)C4)c3)n2)cn1 [Example 89, 5-(1-(3-(2-fluoroethyl)-1-((trifluoromethyl)sulfonyl)azetidin-3-yl)-1H-pyrazol-4-yl)-7-(1-(2-methoxyethyl)-1H-pyrazol-4-yl)imidazo[1,2-c]pyrimidine] |
| 7.00 to 8.00 | 7.00 to 8.00 | 7.00 to 8.00 | 7.00 to 8.00 | CC=CCC1(n2cc(-c3nc(-c4cnn(C)c4)cc4nccn34)cn2)CN(S(=O)(=O)C(F)(F)F)C1 [Example 90, 5-(1-(3-(but-2-en-1-yl)-1-((trifluoromethyl)sulfonyl)azetidin-3-yl)-1H-pyrazol-4-yl)-7-(1-methyl-1H-pyrazol-4-yl)imidazo[1,2-c]pyrimidine] |
| 7.00 to 8.00 | 7.00 to 8.00 | 6.00 to 7.00 | > 8.00 | C=CCC1(n2cc(-c3nc(-c4cnn(C)c4)cc4nccn34)cn2)CN(S(=O)(=O)C(F)(F)F)C1 [Example 91, 5-(1-(3-allyl-1-((trifluoromethyl)sulfonyl)azetidin-3-yl)-1H-pyrazol-4-yl)-7-(1-methyl-1H-pyrazol-4-yl)imidazo[1,2-c]pyrimidine] |
| 6.00 to 7.00 | 6.00 to 7.00 | < 6.00 | 6.00 to 7.00 | Cn1cc(-c2cc3nccn3c(-c3cnn(C4(CC(C)(C)O)CN(S(=O)(=O)C(F)(F)F)C4)c3)n2)cn1 [Example 94, 2-methyl-1-(3-(4-(7-(1-methyl-1H-pyrazol-4-yl)imidazo[1,2-c]pyrimidin-5-yl)-1H-pyrazol-1-yl)-1-((trifluoromethyl)sulfonyl)azetidin-3-yl)propan-2-ol] |
| < 6.00 | 6.00 to 7.00 | < 6.00 | 6.00 to 7.00 | CC(C)S(=O)(=O)N1CC(CCF)(n2cc(-c3nc(-c4cnn(C)c4)cc4nccn34)cn2)C1 [Example 95, 5-(1-(3-(2-fluoroethyl)-1-(isopropylsulfonyl)azetidin-3-yl)-1H-pyrazol-4-yl)-7-(1-methyl-1H-pyrazol-4-yl)imidazo[1,2-c]pyrimidine] |
| < 6.00 | < 6.00 | < 6.00 | < 6.00 | CC(=O)N1CC(CCF)(n2cc(-c3nc(-c4cnn(C)c4)cc4nccn34)cn2)C1 [Example 96, 1-(3-(2-fluoroethyl)-3-(4-(7-(1-methyl-1H-pyrazol-4-yl)imidazo[1,2-c]pyrimidin-5-yl)-1H-pyrazol-1-yl)azetidin-1-yl)ethanone] |
| 7.00 to 8.00 | 7.00 to 8.00 | 6.00 to 7.00 | > 8.00 | COCCC1(n2cc(-c3nc(-c4cnn(C)c4)cc4nccn34)cn2)CN(S(=O)(=O)C(F)(F)F)C1 [Example 100, 5-(1-(3-(2-methoxyethyl)-1-((trifluoromethyl)sulfonyl)azetidin-3-yl)-1H-pyrazol-4-yl)-7-(1-methyl-1H-pyrazol-4-yl)imidazo[1,2-c]pyrimidine] |
| 6.00 to 7.00 | 6.00 to 7.00 | 6.00 to 7.00 | 6.00 to 7.00 | Cn1cc(-c2cc3nccn3c(-c3ccn([C@@H](C[C@@H](O)C(F)(F)F)C4CC4)c3)n2)cn1 [Example 101, (2R,4S)-4-cyclopropyl-1,1,1-trifluoro-4-(3-(7-(1-methyl-1H-pyrazol-4-yl)imidazo[1,2-c]pyrimidin-5-yl)-1H-pyrrol-1-yl)butan-2-ol] |
| 6.00 to 7.00 | 6.00 to 7.00 | < 6.00 | 7.00 to 8.00 | Cn1cc(-c2cc3nccn3c(-c3ccn([C@@H](C[C@H](O)C(F)(F)F)C4CC4)c3)n2)cn1 [Example 102, (2S,4S)-4-cyclopropyl-1,1,1-trifluoro-4-(3-(7-(1-methyl-1H-pyrazol-4-yl)imidazo[1,2-c]pyrimidin-5-yl)-1H-pyrrol-1-yl)butan-2-ol] |

Reference: patent US20140228349A1, “5,7-SUBSTITUTED-IMIDAZO[1,2-C]PYRIMIDINES” (Array BioPharma Inc., priority 2011, published 2014)
